Reference: patent US20230365530A1, “QUINAZOLINE-2,4-DIAMINE DERIVATIVE AND PHARMACEUTICAL COMPOSITION FOR PREVENTING OR TREATING CANCER COMPRISING SAME AS ACTIVE INGREDIENT” (THE ASEAN FOUNDATION, priority 2020, published 2023)

Legend:
MC38 syngeneic model = assay: Combination therapy with anti CTLA-4 in MC38 syngeneic model; type: in vivo, C57BL/6 mouse
Method: In order to confirm the synergistic efficacy of the combination therapy of the compounds of Examples of the present invention and a cancer immunotherapy agent (anti CTLA-4) in a syngeneic animal model transplanted with a mouse colorectal cancer cell line, a cancer cell growth inhibition experiment was conducted in the MC38 syngeneic model. Specific experimental methods are as follows. The frozen MC38 cell line was thawed and cultured in DMEM (Dulbecco's modified Eagle's medium) supplemented with 10% FBS and 1% penicillin-streptomycin in a 37° C., 5% CO2 incubator. The thawed cells were cultured for more than one week, and subcultured at intervals of 2-3 days, confirming that there was no infection with bacteria, yeast (cell image) and mycoplasma. The cells were stained with trypan blue, and those having a survival rate of 90% or more were used for transplantation. The cells were suspended using trypsin-EDTA and then suspended in cold PBS. MC38 cells (1×10^5 cells/150 μl) were subcutaneously transplanted under the right scapula of the C57BL/6 mouse, which had been acclimated for about 1 week. From the 3rd day after the transplantation, tumor formation and growth were observed, and the volume of the tumor was calculated according to the following equation using the measured tumor length. [Tumor volume=(a^2b)/2, a: short diameter, b: long diameter] When the average tumor volume of all mice on the day after tumor transplantation was 80±20 mm^3, the mice were grouped by paired-matching. Drugs were dissolved in 40% polyethylene glycol 400+16% 2-hydroxypropyl-b-cyclodextrin. The compounds of Examples of the present invention were intraperitoneally administered at 30 mg/kg once a day for 4 weeks, and the CTLA-4 antibody (BioX Cell, cat. BE1031) was intraperitoneally administered at 10 mg/kg three times a week. A tumor growth curve was prepared using the tumor volume from the start date of drug administration to the end of the test. The results are shown in FIG. 2, and the tumor growth inhibition rates of the compounds of Examples to the control group are shown in Table 5.

[1] = tested on: pancreatic cancer cell line Miapaca 2; assay: Cancer cell growth inhibition test, CellTiter-glo; type: cell-based; conditions: Homo sapiens, MIA PaCa-2, Miapaca 2 cells, 72 hours
Method: In order to confirm the effect of reducing cell viability by inhibiting EHMT2 by the compounds of Examples in cells, the effect of inhibiting cancer cell growth was analyzed using CellTiter-glo™ analysis (Promega, cat. G7573) method. Specifically, the amount of ATP in living cells was measured and IC50 values were calculated using software to compare the inhibitory effect of the compounds of Examples on cell viability. First, the pancreatic cancer cell line Miapaca 2 was placed in a 96-well cell culture plate at the density of 1×10^3 cells/well and cultured overnight, and then each well of the plate was treated with 1 nM to 100 μM of the compounds of Examples 1 to 89 at each concentration for 72 hours (The final concentration of DMSO in each well was 0.5% or less). CellTiter-glo 2.0 reagent was mixed with a medium at 20% of the amount of the medium, reacted at room temperature for 10 minutes, and then 80 μL of the mixture was transferred to each well of a 96-well plate, followed by measuring the degree of luminescence.

Miapaca2 xenograft model = assay: Tumor growth inhibition in Miapaca2 xenograft model; type: in vivo, Athymic nude mouse; conditions: 20 mg/kg intraperitoneally once a day for 4 weeks
Method: In order to confirm the tumor growth inhibitory effect of the compounds of Examples according to the present invention in a xenograft model in which the human pancreatic cancer cell line was transplanted, a cancer growth inhibition experiment was conducted in the Miapaca2 xenograft model.
Specific experimental methods are as follows. The frozen Miapaca-2 cell line was thawed and cultured in DMEM (Dulbecco's modified Eagle's medium) supplemented with 10% FBS and 1% penicillin-streptomycin in a 37° C., 5% CO2 incubator. The thawed cells were cultured for more than one week, and subcultured at intervals of 2˜3 days, confirming that there was no infection with bacteria, yeast (cell image) and mycoplasma. The cells were stained with trypan blue, and those having a survival rate of 90% or more were used for transplantation. The cells were suspended using trypsin-EDTA and then suspended in a cold solution (PBS:matrigel=6:4). Miapaca-2 cells (4×10^6 cells/[…]) were subcutaneously transplanted under the right scapula of the Athymic nude mouse, which had been acclimated for about 1 week. From the 3rd day after the transplantation, tumor formation and growth were observed, and the volume of the tumor was calculated according to the following equation using the measured tumor length.
[Tumor volume=(a^2b)/2, a: short diameter, b: long diameter]
When the average tumor volume of all mice on the day after tumor transplantation was 80±20 mm^3, the mice were grouped by paired-matching. Drugs were dissolved in 40% polyethylene glycol 400+16% 2-hydroxypropyl-b-cyclodextrin. The drugs were intraperitoneally administered at 20 mg/kg once a day for 4 weeks. A tumor growth curve was prepared using the tumor volume from the start date of drug administration to the end of the test. The results are shown in FIG. 1, and the tumor growth inhibition rates of the compounds of Examples to the control group are shown in Table 4.

[2] = target: EHMT2 (Euchromatic histone-lysine N-methyltransferase 2) (Homo sapiens (Human), UniProt Q96KQ7); assay: EHMT2 enzyme inhibition, LANCE TR-FRET; type: biochemical; conditions: histone H3 peptide, 1 hour at room temperature
Summary of the method: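 EHMT2/G9a enzyme preincubated 10 min with SAM and compounds (1 nM–100 μM, 4× stocks), then reacted 1 hour at room temperature with biotinylated histone H3 peptide (2 μM, 4× stock). H3K9 methylation detected by Eu-antibody/ULight-streptavidin TR-FRET at 665 nm; background-subtracted activity expressed relative to 4% DMSO vehicle; IC50 calculated.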

EHMT2 (Euchromatic histone-lysine N-methyltransferase 2), sequence (Q96KQ7 whole entry): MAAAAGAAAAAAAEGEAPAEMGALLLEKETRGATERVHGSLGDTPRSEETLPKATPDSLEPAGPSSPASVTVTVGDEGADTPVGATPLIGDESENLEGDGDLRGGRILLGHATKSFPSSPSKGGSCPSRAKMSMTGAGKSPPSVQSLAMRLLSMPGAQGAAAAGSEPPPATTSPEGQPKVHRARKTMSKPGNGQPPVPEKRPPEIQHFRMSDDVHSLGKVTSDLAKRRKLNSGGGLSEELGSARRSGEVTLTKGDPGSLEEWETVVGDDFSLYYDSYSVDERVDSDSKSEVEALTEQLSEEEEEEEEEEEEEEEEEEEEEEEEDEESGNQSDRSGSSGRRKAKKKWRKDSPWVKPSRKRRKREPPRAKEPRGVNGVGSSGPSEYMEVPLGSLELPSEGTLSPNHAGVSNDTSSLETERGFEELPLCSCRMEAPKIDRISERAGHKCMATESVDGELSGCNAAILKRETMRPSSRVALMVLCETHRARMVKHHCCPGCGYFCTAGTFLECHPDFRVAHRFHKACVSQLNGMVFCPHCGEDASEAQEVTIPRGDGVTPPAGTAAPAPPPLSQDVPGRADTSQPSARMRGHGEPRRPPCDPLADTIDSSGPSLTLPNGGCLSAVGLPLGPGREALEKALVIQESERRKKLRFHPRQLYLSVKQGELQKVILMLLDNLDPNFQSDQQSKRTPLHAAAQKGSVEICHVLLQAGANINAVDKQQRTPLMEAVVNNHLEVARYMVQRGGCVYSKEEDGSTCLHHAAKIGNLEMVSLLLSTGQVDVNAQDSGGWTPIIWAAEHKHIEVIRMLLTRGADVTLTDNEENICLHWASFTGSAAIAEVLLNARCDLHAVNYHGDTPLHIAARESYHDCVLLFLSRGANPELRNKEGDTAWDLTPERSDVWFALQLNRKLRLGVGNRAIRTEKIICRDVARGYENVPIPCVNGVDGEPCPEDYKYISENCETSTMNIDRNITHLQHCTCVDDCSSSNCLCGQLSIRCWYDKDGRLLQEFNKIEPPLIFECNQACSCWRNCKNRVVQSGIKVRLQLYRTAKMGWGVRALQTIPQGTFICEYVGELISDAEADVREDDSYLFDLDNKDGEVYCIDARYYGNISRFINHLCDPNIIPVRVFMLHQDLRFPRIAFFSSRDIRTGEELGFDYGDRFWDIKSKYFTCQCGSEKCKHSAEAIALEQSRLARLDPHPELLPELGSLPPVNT

SMILES	Effect of combination with cancer immunotherapy agent (in words) (MC38 syngeneic model; combined with anti CTLA-4)	Tumor growth inhibition rate (TGI) (MC38 syngeneic model; compound alone, 30 mg/kg intraperitoneally once a day for 4 weeks)	Anticancer activity alone (in words) (MC38 syngeneic model; treated alone)	IC50 [1]	Tumor growth inhibition rate (TGI) (Miapaca2 xenograft model)	IC50 [2]
COc1cc2c(NC3CCN(C(C)C)CC3)nc(N3CCCCC3)nc2cc1C#CCCN(C)C [Example 3, 7-(4-(dimethylamino)-1-butyne-1-yl)-N-(1-isopropylpiperidine-4-yl)-6-methoxy-2-(piperidine-1-yl)quinazoline-4-amine]	enhancing the anticancer activity of a cancer immunotherapy agent	3.00%	inhibits tumor growth even when treated alone	655 nM	42.47	< 100 nM
COc1cc2c(NCCN(C)C)nc(N3CCCC3)nc2cc1C#CCCN1CCCC1 [Example 52, N1-(6-methoxy-2-(pyrrolidine-1-yl)-7-(4-(pyrrolidine-1-yl)-1-butyne-1-yl)quinazoline-4-yl)-N2,N2-dimethylethane-1,2-diamine]	–	–	–	464 nM	26.39	< 100 nM
COc1cc2c(NC3CCN(C4CC4)CC3)nc(N(C)C)nc2cc1C#CCCN1CCCC1 [Example 55, N4-(1-cyclopropylpiperidine-4-yl)-6-methoxy-N2,N2-dimethyl-7-(4-(pyrrolidine-1-yl)-1-butyne-1-yl)quinazoline-2,4-diamine]	–	–	–	307 nM	31.80	< 100 nM
COc1cc2c(NC3CCN(C(C)C)CC3)nc(N3CC[C@@H](F)C3)nc2cc1C#CCCN1CCCC1 [Example 60, (R)-2-(3-fluoropyrrolidine-1-yl)-N-(1-isopropylpiperidine-4-yl)-6-methoxy-7-(4-(pyrrolidine-1-yl)-1-butyne-1-yl)quinazoline-4-amine]	–	–	–	669 nM	–	< 100 nM
